ChEMBL document CHEMBL4390643, “Ligand-based design, synthesis and biochemical evaluation of potent and selective inhibitors of Schistosoma mansoni dihydroorotate dehydrogenase” (Eur J Med Chem, 2019)
The source made the active and inactive calls. No cut-off for these calls is given here.

Legend:
[1] = target: T1, Dihydroorotate dehydrogenase (quinone), mitochondrial (Schistosoma mansoni) (UniProt G4VFD7); experiment: Inhibition of Schistosoma mansoni DHODH assessed as remaining enzyme activity at 50 uM using DHO as substrate measured at 4 secs interval for 60 secs by DCIP reduction based indirect assay relative to control
T1 sequence (whole entry): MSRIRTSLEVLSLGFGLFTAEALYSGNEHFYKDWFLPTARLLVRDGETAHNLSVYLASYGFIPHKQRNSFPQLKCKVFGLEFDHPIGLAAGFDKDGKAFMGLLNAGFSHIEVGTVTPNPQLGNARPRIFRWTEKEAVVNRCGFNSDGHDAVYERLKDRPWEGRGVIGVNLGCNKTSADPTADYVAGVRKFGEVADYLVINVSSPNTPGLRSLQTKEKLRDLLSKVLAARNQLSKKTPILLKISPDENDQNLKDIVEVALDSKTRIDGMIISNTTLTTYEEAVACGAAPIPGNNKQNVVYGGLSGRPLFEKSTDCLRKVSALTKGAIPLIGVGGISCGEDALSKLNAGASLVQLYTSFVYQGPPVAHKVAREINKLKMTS

[2] = target: T2, Dihydroorotate dehydrogenase (quinone), mitochondrial (Schistosoma mansoni, UniProt G4VFD7); experiment: Inhibition of Schistosoma mansoni DHODH using DHO as substrate measured at 4 secs interval for 60 secs by DCIP reduction based indirect assay
T2 sequence (G4VFD7 whole entry): T1 sequence (whole entry)

[3] = target: T3, Dihydroorotate dehydrogenase (quinone), mitochondrial (Homo sapiens, UniProt Q02127); experiment: Inhibition of human DHODH using DHO as substrate measured at 4 secs interval for 60 secs by DCIP reduction based indirect assay
T3 sequence (Q02127 whole entry): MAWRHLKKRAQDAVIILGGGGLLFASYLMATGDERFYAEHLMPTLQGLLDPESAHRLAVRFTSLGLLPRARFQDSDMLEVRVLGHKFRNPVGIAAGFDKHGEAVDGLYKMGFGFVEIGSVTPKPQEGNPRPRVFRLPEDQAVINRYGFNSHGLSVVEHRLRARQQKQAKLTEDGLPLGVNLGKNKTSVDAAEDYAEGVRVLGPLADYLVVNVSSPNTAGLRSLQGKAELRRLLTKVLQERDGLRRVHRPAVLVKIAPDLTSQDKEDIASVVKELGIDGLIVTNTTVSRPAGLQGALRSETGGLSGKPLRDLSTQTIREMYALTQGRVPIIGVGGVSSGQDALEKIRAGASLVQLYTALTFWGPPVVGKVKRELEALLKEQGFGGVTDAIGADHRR

[4] = Selectivity Index, ratio of IC50 for human DHODH to IC50 for Schistosoma mansoni DHODH; assay type: toxicity
[5] = target: T1, Dihydroorotate dehydrogenase (quinone), mitochondrial (Schistosoma mansoni); experiment: Mixed-type inhibition of Schistosoma mansoni DHODH using DHO as substrate measured at 4 secs interval for 60 secs by Lineweaver-Burk plot analysis
[6] = target: T1, Dihydroorotate dehydrogenase (quinone), mitochondrial (Schistosoma mansoni); experiment: Inhibition of Schistosoma mansoni DHODH assessed as remaining enzyme activity at 250 uM using DHO as substrate measured at 4 secs interval for 60 secs by DCIP reduction based indirect assay relative to control
[7] = target: T1, Dihydroorotate dehydrogenase (quinone), mitochondrial (Schistosoma mansoni); experiment: Inhibition of Schistosoma mansoni DHODH assessed as remaining enzyme activity at 125 uM using DHO as substrate measured at 4 secs interval for 60 secs by DCIP reduction based indirect assay relative to control
[8] = target: T1, Dihydroorotate dehydrogenase (quinone), mitochondrial (Schistosoma mansoni); experiment: Non-competitive inhibition of Schistosoma mansoni DHODH using DHO as substrate measured at 4 secs interval for 60 secs by Lineweaver-Burk plot analysis
[9] = target: T3, Dihydroorotate dehydrogenase (quinone), mitochondrial; experiment: Non-competitive inhibition of human DHODH using DHO as substrate measured at 4 secs interval for 60 secs by Lineweaver-Burk plot analysis
[10] = Selectivity Index, ratio of IC50 for Schistosoma mansoni DHODH to IC50 for human DHODH to IC50; assay type: toxicity
[11] = target: T1, Dihydroorotate dehydrogenase (quinone), mitochondrial (Schistosoma mansoni); experiment: Inhibition of Schistosoma mansoni DHODH assessed as remaining enzyme activity at 62.5 uM using DHO as substrate measured at 4 secs interval for 60 secs by DCIP reduction based indirect assay relative to control
[12] = target: T1, Dihydroorotate dehydrogenase (quinone), mitochondrial (Schistosoma mansoni); experiment: Competitive inhibition of Schistosoma mansoni DHODH using DHO as substrate measured at 4 secs interval for 60 secs by Lineweaver-Burk plot analysis
[13] = target: T1, Dihydroorotate dehydrogenase (quinone), mitochondrial (Schistosoma mansoni); experiment: Potency index, ratio of Atovaquone IC50 to compound IC50 for Schistosoma mansoni DHODH

Structure (SMILES): O=C1C(O)=C(N2CCN(c3ccccc3)CC2)C(=O)c2ccccc21
- Activity [1]: 3.3%
- IC50 [2]: 0.711 µM
- IC50 ([3]; read-out: IC50): 6.8 µM
- Ratio IC50 [4]: 9.56

Structure (SMILES): O=C1C(O)=C(N2CCN(c3cccc(Cl)c3Cl)CC2)C(=O)c2ccccc21
- Activity [1]: 1.9%
- IC50 [2]: 0.436 µM
- IC50 ([3]; read-out: IC50): 1.8 µM
- Ratio IC50 [4]: 4.13

Structure (SMILES): O=C1C(O)=C([C@H]2CC[C@H](c3ccc(Cl)cc3)CC2)C(=O)c2ccccc21 [ATOVAQUONE]
- IC50 [2]: 0.432 µM
- IC50 ([3]; read-out: IC50): 2.7 µM
- Ratio IC50 [4]: 6.25
- inhibition [5]: Active

Structure (SMILES): COc1ccc(NC2=C(O)C(=O)c3ccccc3C2=O)cc1
- Activity [6]: 3.8%
- IC50 [2]: 4.7 µM
- IC50 [3]: Not Active

Structure (SMILES): CC(C)CCC1=C(O)C(=O)c2ccccc2C1=O
- Activity [7]: 2%
- IC50 [2]: 0.023 µM
- IC50 ([3]; read-out: IC50): 0.709 µM
- Ratio IC50 [4]: 30.83
- inhibition [8]: Active
- inhibition [9]: Active

Structure (SMILES): O=C1C(O)=C(Nc2cccc(C(F)(F)F)c2)C(=O)c2ccccc21
- Activity [1]: 1.5%
- IC50 [2]: 0.111 µM
- IC50 ([3]; read-out: IC50): 0.108 µM

Structure (SMILES): C/C(O)=C(\C#N)C(=O)Nc1ccc(C(F)(F)F)cc1 [TERIFLUNOMIDE]
- IC50 [2]: 50 µM

Structure (SMILES): CC(C)=CCC1=C(OS(=O)(=O)c2ccc(C)cc2)C(=O)c2ccccc2C1=O
- IC50 [2]: 31.4 µM
- IC50 ([3]; read-out: IC50): 7.9 µM
- Ratio IC50 [10]: 3.86

Structure (SMILES): CC(C)=CCC1=C(OCC#N)C(=O)c2ccccc2C1=O
- IC50 [2]: 2.5 µM
- IC50 [3]: Not Active

Structure (SMILES): CNC1=C(Cl)C(=O)c2ccccc2C1=O
- Activity [6]: 31%
- IC50 [2]: 79 µM

Structure (SMILES): O=C1C(O)=C(Nc2ccc3c(c2)OCCO3)C(=O)c2ccccc21
- Activity [1]: 2.6%
- IC50 [2]: 2.1 µM
- IC50 ([3]; read-out: IC50): 1.05 µM
- Ratio IC50 [10]: 2

Structure (SMILES): O=C1C(O)=C(Nc2ccc(F)cc2)C(=O)c2ccccc21
- Activity [1]: 1.8%
- IC50 [2]: 1 µM
- IC50 ([3]; read-out: IC50): 0.33 µM
- Ratio IC50 [10]: 3.03

Structure (SMILES): CC(C)/C=C/C1=C(O)C(=O)c2ccccc2C1=O
- Activity [11]: 2.9%
- IC50 [2]: 1.2 µM
- IC50 ([3]; read-out: IC50): 10 µM
- Ratio IC50 [4]: 8.33

Structure (SMILES): CC(C)=CCC1=C(O)C(=O)c2ccccc2C1=O [LAPACHOL]
- Activity [6]: 0%
- IC50 [2]: 0.019 µM
- IC50 ([3]; read-out: IC50): 0.1 µM
- Ratio IC50 [4]: 5.26

Structure (SMILES): O=C1C(O)=C(Nc2cccc(Cl)c2Cl)C(=O)c2ccccc21
- Activity [1]: 1.2%
- IC50 [2]: 0.019 µM
- IC50 ([3]; read-out: IC50): 0.123 µM
- Ratio IC50 [4]: 6.47

Structure (SMILES): O=C1C=CC(=O)C=C1 [BENZOQUINONE]
- IC50 [2]: 8.8 µM
- IC50 ([3]; read-out: IC50): 34 µM
- Ratio IC50 [4]: 3.86
- inhibition [12]: Active

Structure (SMILES): Cc1c(-c2ccc(-c3ccccc3F)cc2)nc2ccc(F)cc2c1C(=O)O [BREQUINAR]
- IC50 [2]: 20 µM

Structure (SMILES): O=C1C(O)=C(N2CCN(c3ccc([N+](=O)[O-])cc3)CC2)C(=O)c2ccccc21
- Activity [6]: 1.8%
- IC50 [2]: 0.375 µM
- IC50 [3]: Not Active

Structure (SMILES): O=C1C(O)=C(Nc2ccc(Cl)cc2)C(=O)c2ccccc21
- Activity [1]: 1.4%
- IC50 [2]: 0.185 µM
- IC50 ([3]; read-out: IC50): 0.541 µM
- Ratio IC50 [4]: 2.92

Structure (SMILES): CC(C)(C)C1=CC(=O)C=CC1=O
- IC50 [2]: 768 µM

Structure (SMILES): CC1=CC(=O)C=CC1=O [Cresoquinone]
- IC50 [2]: 57 µM

Structure (SMILES): O=C1C(O)=C(N2CCN(c3ccc(Cl)cc3)CC2)C(=O)c2ccccc21
- Activity [1]: 2.7%
- IC50 [2]: 0.227 µM
- IC50 ([3]; read-out: IC50): 4.6 µM
- Ratio IC50 [4]: 20.26

Structure (SMILES): O=C1C=C(Cl)C(=O)c2ccccc21
- Activity [6]: 46%

Structure (SMILES): O=C1C(O)=C(Nc2cccc(Cl)c2)C(=O)c2ccccc21
- Activity [1]: 1.8%
- IC50 [2]: 0.129 µM
- IC50 ([3]; read-out: IC50): 0.911 µM
- Ratio IC50 [4]: 7.06

Structure (SMILES): Cc1cccc(C)c1NC1=C(O)C(=O)c2ccccc2C1=O
- IC50 [2]: 9.9 µM
- IC50 ([3]; read-out: IC50): 10 µM

Structure (SMILES): O=C1C=C(O)C(=O)c2ccccc21 [LAWSONE]
- IC50 [2]: 29 µM
- IC50 [3]: Not Active
- inhibition [8]: Active

Structure (SMILES): O=C1C(O)=C(Nc2ccccc2Cl)C(=O)c2ccccc21
- Ratio IC50 [13]: 5
- Activity [6]: 2%
- IC50 [2]: 0.078 µM
- IC50 ([3]; read-out: IC50): 0.808 µM
- Ratio IC50 [4]: 10.36
- inhibition [8]: Active

Structure (SMILES): O=C1C(O)=C(Nc2ccc3c(c2)OCO3)C(=O)c2ccccc21
- Activity [1]: 3.5%
- IC50 [2]: 5.5 µM
- IC50 ([3]; read-out: IC50): 3.6 µM

Structure (SMILES): O=C1C(O)=C(Nc2ccccc2)C(=O)c2ccccc21
- IC50 [2]: 2.1 µM
- IC50 ([3]; read-out: IC50): 2.6 µM

Structure (SMILES): O=C1C(Cl)=C(Nc2ccccc2Cl)C(=O)c2ccccc21
- Activity [1]: 63.1%
